# Measured values: ChEMBL document CHEMBL5728685, “Macrocycle containing aminopyrazole and pyrimidine and pharmaceutical composition and use thereof” (2021)
# Molecular target: High affinity nerve growth factor receptor (Homo sapiens, UniProt P04629)
# Assay: Inhibition Assay: A testing platform for TrkAWT kinase activity was established based on Homogeneous Time-Resolved Fluorescence (HTRF) assay, and the activities of the compounds were tested using the platform. The compounds were subjected to five-fold gradient dilution for eight times with 100% DMSO with a starting concentration of 200 μM (9 concentrations in total). 4 μL of diluted sample for …
# Chain of High affinity nerve growth factor receptor (P04629 whole entry): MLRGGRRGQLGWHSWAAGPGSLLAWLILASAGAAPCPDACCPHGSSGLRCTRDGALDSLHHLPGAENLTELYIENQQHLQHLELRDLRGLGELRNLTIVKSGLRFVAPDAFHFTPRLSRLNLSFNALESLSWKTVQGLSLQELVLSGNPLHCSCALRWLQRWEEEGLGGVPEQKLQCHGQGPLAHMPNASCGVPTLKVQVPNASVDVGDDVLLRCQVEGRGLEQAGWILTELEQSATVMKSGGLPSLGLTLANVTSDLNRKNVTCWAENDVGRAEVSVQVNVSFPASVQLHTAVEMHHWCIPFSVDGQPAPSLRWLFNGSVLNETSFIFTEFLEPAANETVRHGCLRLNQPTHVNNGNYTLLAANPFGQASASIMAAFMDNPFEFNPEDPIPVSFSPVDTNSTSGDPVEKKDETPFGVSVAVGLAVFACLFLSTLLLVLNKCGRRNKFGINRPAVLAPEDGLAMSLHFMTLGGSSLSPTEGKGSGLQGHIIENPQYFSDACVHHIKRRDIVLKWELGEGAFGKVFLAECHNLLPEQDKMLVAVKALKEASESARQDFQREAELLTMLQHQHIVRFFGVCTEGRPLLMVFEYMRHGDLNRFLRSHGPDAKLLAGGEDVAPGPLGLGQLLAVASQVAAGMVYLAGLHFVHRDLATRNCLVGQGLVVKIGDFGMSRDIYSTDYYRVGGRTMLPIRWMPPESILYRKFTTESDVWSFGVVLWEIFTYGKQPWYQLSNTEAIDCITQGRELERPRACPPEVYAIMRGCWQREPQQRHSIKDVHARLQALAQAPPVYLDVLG
row,SMILES,IC50
1,C[C@@H]1CCc2ncc(F)cc2[C@H]2C[C@H](F)CN2c2ccn3nc(N)c(c3n2)C(=O)N1,0.23 nM
2,Nc1nn2ccc3nc2c1C(=O)NCCCn1cc(F)cc(c1=O)[C@H]1C[C@H](F)CN31,0.23 nM
3,Nc1nn2ccc3nc2c1C(=O)NCCOc1ncc(F)cc1C1CCCN31 (stereo not drawn),0.8 nM
